According to patent publication US20150072856A1, “ADJUVANTS BASED ON OPTIONALLY ALKOXYLATED REACTION PRODUCTS OF GLYCEROL CARBONATE AND ALKYLAMINES” (BASF SE, priority 2012, published 2015):

Tests used:
Assay type in all cases: in vivo
Conditions in all cases: 300 g/ha adjuvant, 375 l/ha tank mix, score vs untreated plants
rapeseed = experiment: Greenhouse herbicidal activity of glyphosate tank mix with adjuvant on rapeseed
Experimental: (§1) An aqueous formulation (SL type) was prepared by dissolving 52.3 wt % potassium glyphosate in water. As adjuvant the ethoxylated (10 equivalents) carbamate from Example 1 was added and dissolved in the resulting SL formulation. This SL formulation was diluted with water to prepare a tank mix, which contained 0.8 g/l of the adjuvant, 0.75 g/l of the potassium glyphosate (or as alternative tank mix 0.37 g/l). This tankmix may be applied at 375 l/ha (corresponding to 300 g/ha adjuvant and 280 g/ha glyphosate (or 140 g/ha as alternative).
(§2) For the greenhouse tests, various crops (winter wheat (cultivar Cubus), maize (cultivar Amadeo), soybean (cultivar Delta P.), rapeseed) was sown or potted in loamy sandy soil to a depth of 1-2 cm. When the plants had reached a growth height of 10 to 25 cm (i.e., around 10 to 21 days after sowing), the spray mixtures were applied to the plants in a spraying cabin.
(§3) The tank mix prepared in Example 7 was applied at a application rate of 375 l/ha (140 or 280 g of glyphosate/ha and 300 g of adjuvant/ha). The temperatures in the experimental period, which lasted for 3 to 4 weeks, were between 18-35° C. […]
(§4) The herbicidal activity was evaluated by awarding scores to the treated plants in comparison to the untreated control plants (Table 1 and 2). […]

[1] = tested on: soybean (cultivar Delta P.); experiment: Greenhouse herbicidal activity of glyphosate tank mix with adjuvant on soybean
Experimental: as §1, §2, §3, §4

[2] = tested on: winter wheat (cultivar Cubus); experiment: Greenhouse herbicidal activity of glyphosate tank mix with adjuvant on wheat
Experimental: as §1, §2, §3, §4

maize (cultivar Amadeo) = experiment: Greenhouse herbicidal activity of glyphosate tank mix with adjuvant on maize
Experimental: as §1, §2, §3, §4

Structure (SMILES): O=C(O)CNCP(=O)([O-])O.[K+] [—, potassium glyphosate]
- Activity [%] after 21 days DAT, Rapeseed (rapeseed; 140 g/ha glyphosate): 0%
- Activity [%] after 21 days DAT, Rapeseed (rapeseed; 280 g/ha glyphosate): 0%
- Activity [%] after 21 days DAT, Soybean ([1]; 140 g/ha glyphosate): 0%
- Activity [%] after 21 days DAT, Soybean ([1]; 280 g/ha glyphosate): 0%
- Activity [%] after 21 days DAT, Wheat ([2]; 140 g/ha glyphosate): 8%
- Activity [%] after 21 days DAT, Wheat ([2]; 280 g/ha glyphosate): 31%
- Activity [%] after 21 days DAT, Maize (maize (cultivar Amadeo); 140 g/ha glyphosate): 13%
- Activity [%] after 21 days DAT, Maize (maize (cultivar Amadeo); 280 g/ha glyphosate): 63%
